This is an account of results in patent US6624317B1, “Taxoid conjugates as antimitotic and antitumor agents” (priority 2000, dated 2003).

Read-outs that look alike come from different tables or passages of the source.

The test system of series [1] is epiderimoid carcinoma of the nasopharynx (KB). Description: in vitro cytotoxicity assay, KB. It is filed as cell-based, human. The following applies: drug exposure 3 days. The protocol:
(§1) Biological Assay. The in vitro cytotoxicity assay was carried out according to procedures described in Rubinstein et al. (P. Ferguson et al., Cancer Res. 1988, 48, 5956-5964). […] The human tumor cell line panel consisted of epiderimoid carcinoma of the nasopharynx (KB), lung carcinoma (A-549), ileocecal carcinoma (HCT-8), renal cancer (CAKI-1), breast cancer (MCF-7), melanoma cancer (SKMEL-2), and ovarian cancer (1A9). The drug resistant cell line panel consisted of three KB-derivatives, -7d, -CPT, and -VCR. The properties of these cells are described elsewhere (P. Ferguson et al., Cancer Res. 1988, 48, 5956-5964; D. Beidler et al., Cancer Res. 1996, 56, 345-353). […] They were a generous gift of Dr. P. Giannakakou (P. Giannakakou et al., J. Biol. Chem. 1997, 27, 17118-17125). Cells were cultured at 37° C. in RPMI-1640 with 100 ug/mL kanamycin and 10% (v/v) fetal bovine serum in a humidified atmosphere containing 5% CO2. Initial seeding densities varied among the cell lines to ensure a final absorbance of 1-2.5 A562 units. Drug exposure was for 3 days, and the ED50 value, the drug concentration that reduced the absorbance by 50%, was interpolated from dose-response data.

The next series concerns breast cancer (MCF-7). The series can be described thus: in vitro cytotoxicity assay, MCF-7. The following applies: read-out: Cytotoxicity (ED50) MCF-7. The protocol:
as §1

Series [2] has as its system ileocecal carcinoma (HCT-8). Description: in vitro cytotoxicity assay, HCT-8. The following applies: read-out: Cytotoxicity (ED50) HCT-8. The protocol:
as §1

The test system of a further series is lung carcinoma (A-549). The series can be described thus: in vitro cytotoxicity assay, A549. The following applies: read-out: Cytotoxicity (ED50) A549. The protocol: as §1
The subject of another series is ovarian cancer (1A9). The series can be described thus: in vitro cytotoxicity assay, 1A9. The following applies: read-out: Cytotoxicity (ED50) 1A9 (OVCAR). The method, then: as §1
Another series deals with PAX-10. The series can be described thus: cytotoxicity in paclitaxel-resistant 1A9 sub-line PAX-10. Type of series: cell-based, human. The following applies: PAX-10 paclitaxel-resistant 1A9 sub-line. The method, then: as §1
(§2) The newly synthesized taxoid-4′-O-demethyl epipodophyllotoxin conjugates were evaluated in house using standard cytotoxicity assays in human tumor (HTCL) and drug-resistant (DRCL) cell lines. Reference compounds were paclitaxel (1), cephalomannine (2), and epipodophyllotoxins [etoposide (5) and GL-331 (7), see FIG. 1]. The HTCL panel was comprised of KB, A549, HCT-8, CAKI-1, MCF-7, SK-MEL-2, and 1A9 cell lines. Two paclitaxel-resistant 1A9 sub-lines designated as PAX-10 and PAX-22 were also tested as part of the DRCL panel. Other resistant-cell lines were KB derivatives expressing various mechanisms or multi-drug resistance as described elsewhere (P. Ferguson et al., Cancer Res. 1988, 48, 5956-5964; D. Beidler et al., Cancer Res. 1996, 56, 345-353).

For series [3], the system named is melanoma cancer (SKMEL-2). Description: in vitro cytotoxicity assay, SK-MEL-2. The following applies: read-out: Cytotoxicity (ED50) SK-MEL-2. The method, then: as §1
In a further series the test system is renal cancer (CAKI-1). Description: in vitro cytotoxicity assay, CAKI-1. The following applies: read-out: Cytotoxicity (ED50) CAKI-1. The method, then:
as §1

In series [4] the test system is protein-linked DNA breaks (PLDB). The following applies: drug treated cells; earlier work; cited from earlier work.
The subject of series [5] is human KB and DU-145 tumor cells in nude mice. The following applies: earlier work; cited from earlier work.
In series [6] the test system is paclitaxel resistant cells. Description: cytotoxicity against paclitaxel resistant cells (overall). It is filed as cell-based, human. The following applies: compared with the unconjugated components, Table 3. The method, then: as §1, §2
Another series concerns KB-VCR. Description: cytotoxicity in drug resistant cell line KB-VCR. Type of series: cell-based, human. The following applies: KB-VCR drug resistant KB derivative. The protocol:
as §1, §2

In another series the test system is PAX-22. The series can be described thus: cytotoxicity in paclitaxel-resistant 1A9 sub-line PAX-22. It is filed as cell-based, human. The following applies: PAX-22 paclitaxel-resistant 1A9 sub-line. The method, then:
as §1, §2

Series [7] deals with Cellular protein-DNA complex formation. The series can be described thus: Protein-linked DNA break assay (cellular protein-DNA complex formation). The following applies: Etoposide given as 100; NA^1 not active at 50 uM, NA^2 not active at 100 uM. It is filed as cell-based. An excerpt: (§3) Protein-Linked DNA Break and Topoisomerase 11 Activity Assays. The procedures were done according to detailed published methods (K. Bastow et al., Bioorg. Med. Chem. 1997, 5, 1481-1488).

Another series deals with Topoisomerase II. The series can be described thus: Topoisomerase II activity assay (inhibition of topo II in vitro). It is filed as biochemical. The following applies: NA^1 not active at 50 uM, NA^2 not active at 100 uM.
Text: as §3

The subject of the next series is KB-7d. The series can be described thus: cytotoxicity in drug resistant cell line KB-7d. It is filed as cell-based, human. The following applies: KB-7d drug resistant KB derivative. The method, then:
as §1, §2

A further series has as its system KB-CPT. Description: cytotoxicity in drug resistant cell line KB-CPT. It is filed as cell-based, human. The following applies: KB-CPT drug resistant KB derivative. The protocol:
as §1, §2

[8] abbreviates: HCT-8, drug exposure 3 days, NA = not active.
[9] abbreviates: A549, drug exposure 3 days, NA = not active.
Setting [10] is: 1A9 (OVCAR), drug exposure 3 days.
The mark [11] stands for this setting: SK-MEL-2, drug exposure 3 days, NA = not active.

In the case of `C/C=C(\C)C(=O)N[C@@H](c1ccccc1)[C@@H](O)C(=O)O[C@H]1C[C@@]2(O)[C@@H](OC(=O)c3ccccc3)[C@@H]3[C@]4(OC(C)=O)CO[C@@H]4C[C@H](O)[C@@]3(C)C(=O)[C@H](OC(C)=O)C(=C1C)C2(C)C` [Cephalomannine, cephalomannine, reference compound], the “Cytotoxicity (ED50) KB” value in series [1] was 2 nM. The EC50 in the series on breast cancer (MCF-7) (Homo sapiens, MCF7, 72 h) is 167 nM; in series [2] (Homo sapiens, HCT-8, 72 h), 47 nM; in the series with lung carcinoma (A-549) (Homo sapiens, A549, 72 h), 9 nM; in the series on ovarian cancer (1A9) (Homo sapiens, 72 h), 3 nM; in series [3] (Homo sapiens, SK-MEL-2, 72 h) it was 134 nM; with renal cancer (CAKI-1) (Homo sapiens, CAKI-1, 72 h), more than 300 nM. Also, in the series on PAX-10, the “Resistance Fold PAX-10” value is reported as 40.

As for `CC[C@@]1(O)C(=O)OCc2c1cc1n(c2=O)Cc2c-1nc1ccccc1c2C=Nc1ccc(N[C@@H]2c3cc4c(cc3[C@@H](c3cc(OC)c(O)c(OC)c3)[C@H]3C(=O)OC[C@@H]32)OCO4)cc1` [Compound 3], in [4], the “induction of protein-linked DNA breaks (PLDB) (in words)” value is listed as “induced protein-linked DNA breaks (PLDB) in a concentration dependent manner”. Also, the “in vivo antitumor activity (in words)” value in series [5] was “more active than either etoposide or CPT”.

With `CC[C@@]1(O)C(=O)OCc2c1cc1n(c2=O)Cc2c-1nc1ccccc1c2C=Nc1ccccc1N[C@@H]1c2cc3c(cc2[C@@H](c2cc(OC)c(O)c(OC)c2)[C@H]2C(=O)OC[C@@H]21)OCO3` [Compound 4], the “induction of protein-linked DNA breaks (PLDB) (in words)” value in [4] is reported as “induced protein-linked DNA breaks (PLDB) in a concentration dependent manner”.

On to `C/C=C(\C)C(=O)N[C@@H](c1ccccc1)[C@@H](OC(=O)c1ccc(C=N[C@@H]2c3cc4c(cc3[C@@H](c3cc(OC)c(O)c(OC)c3)[C@H]3C(=O)OC[C@@H]32)OCO4)cc1)C(=O)O[C@H]1C[C@@]2(O)[C@@H](OC(=O)c3ccccc3)[C@@H]3[C@]4(OC(C)=O)CO[C@@H]4C[C@H](O)[C@@]3(C)C(=O)[C@H](OC(C)=O)C(=C1C)C2(C)C` [Compound 14], for which the “Cytotoxicity (ED50) KB” value in series [1] amounted to 30 nM. In addition, the EC50 with breast cancer (MCF-7) (MCF-7, drug exposure 3 days) is 1230 nM; in [2] (setting [8]), 2780 nM; with lung carcinoma (A-549) (setting [9]), 700 nM; with ovarian cancer (1A9) (setting [10]) it was 140 nM; in [3] (setting [11]), 8900 nM; in the series on renal cancer (CAKI-1) (CAKI-1, drug exposure 3 days), more than 5000 nM. The “Resistance Fold PAX-10” value with PAX-10 is recorded as more than 36.

In the case of `C/C=C(\C)C(=O)N[C@@H](c1ccccc1)[C@@H](OC(=O)c1ccc(C=Nc2ccc(N[C@@H]3c4cc5c(cc4[C@@H](c4cc(OC)c(O)c(OC)c4)[C@H]4C(=O)OC[C@@H]43)OCO5)cc2)cc1)C(=O)O[C@H]1C[C@@]2(O)[C@@H](OC(=O)c3ccccc3)[C@@H]3[C@]4(OC(C)=O)CO[C@@H]4C[C@H](O)[C@@]3(C)C(=O)[C@H](OC(C)=O)C(=C1C)C2(C)C` [Compound 16], in series [1], the “Cytotoxicity (ED50) KB” value worked out at 1400 nM. The EC50 in the series with breast cancer (MCF-7) (MCF-7, drug exposure 3 days) was more than 5000 nM; in series [2] (setting [8]), more than 40000 nM; in the series with lung carcinoma (A-549) (setting [9]), 3550 nM; with ovarian cancer (1A9) (setting [10]), 1120 nM; in [3] (setting [11]), more than 40000 nM; in the series on renal cancer (CAKI-1) (CAKI-1, drug exposure 3 days), more than 10000 nM. In series [6], the “activity against paclitaxel resistant cells (in words)” value is listed as “enhanced activity against paclitaxel resistant cells”. In the series with PAX-10, the “Resistance Fold PAX-10” value worked out at 7.5.

Consider `COc1cc([C@@H]2c3cc4c(cc3[C@@H](O[C@@H]3O[C@@H]5CO[C@@H](C)O[C@H]5[C@H](O)[C@H]3O)[C@H]3COC(=O)[C@H]23)OCO4)cc(OC)c1O` [Etoposide, etoposide, reference compound], for which, in [1], the “Cytotoxicity (ED50) KB” value stood at 200 nM. Also, the EC50 with breast cancer (MCF-7) (Homo sapiens, MCF7, 72 h) was more than 5000 nM; in series [2] (Homo sapiens, HCT-8, 72 h), more than 5000 nM; with lung carcinoma (A-549) (Homo sapiens, A549, 72 h) it was 1950 nM; in the series on ovarian cancer (1A9) (Homo sapiens, 72 h), 600 nM; in the series with renal cancer (CAKI-1) (Homo sapiens, CAKI-1, 72 h) it was 2200 nM. The “Resistance Fold KB-VCR” value in the series with KB-VCR turned out to be 153. In addition, in the series with PAX-22, the “Resistance Fold PAX-22” value is reported as more than 16. Moreover, the “Cellular protein-DNA complex formation” value in [7] is recorded as 100%. In addition, in the series on Topoisomerase II, the “Inhibition of Topo II IC100” value came out at 100 µM. Further, the “Resistance Fold PAX-10” value in the series with PAX-10 is listed as more than 16. Also, the “Resistance Fold KB-7d” value with KB-7d stood at 119. The “Resistance Fold KB-CPT” value in the series on KB-CPT came out at 1.

As for `COc1cc([C@@H]2c3cc4c(cc3[C@@H](Nc3ccc([N+](=O)[O-])cc3)[C@H]3COC(=O)[C@H]23)OCO4)cc(OC)c1O` [GL-331, reference compound], the “Cytotoxicity (ED50) KB” value in series [1] came to 1860 nM. The EC50 with breast cancer (MCF-7) (MCF-7, drug exposure 3 days) turned out to be 9290 nM; in [2] (setting [8]), 3380 nM; with lung carcinoma (A-549) (setting [9]), 480 nM; in the series on ovarian cancer (1A9) (setting [10]) it was 200 nM; in series [3] (setting [11]) it was 5950 nM; in the series with renal cancer (CAKI-1) (CAKI-1, drug exposure 3 days), 1800 nM. Also, the “Resistance Fold KB-VCR” value with KB-VCR is recorded as 3. Moreover, in the series on PAX-22, the “Resistance Fold PAX-22” value worked out at 8. The “Cellular protein-DNA complex formation” value in series [7] was 134 +/− 7%. In the series with Topoisomerase II, the “Inhibition of Topo II IC100” value was determined as 50 µM. Further, the “Resistance Fold PAX-10” value with PAX-10 was 13. In the series on KB-7d, the “Resistance Fold KB-7d” value is reported as 2. In addition, in the series with KB-CPT, the “Resistance Fold KB-CPT” value was 1.

For `CC(=O)O[C@H]1C(=O)[C@@]2(C)[C@H]([C@H](OC(=O)c3ccccc3)[C@]3(O)C[C@H](OC(=O)[C@H](O)[C@@H](NC(=O)c4ccccc4)c4ccccc4)C(C)=C1C3(C)C)[C@]1(OC(C)=O)CO[C@@H]1C[C@@H]2O` [Paclitaxel, paclitaxel, reference compound], in series [1], the “Cytotoxicity (ED50) KB” value was 16 nM. The “Resistance Fold KB-VCR” value in the series on KB-VCR was found to be 15. Further, in the series with PAX-22, the “Resistance Fold PAX-22” value is reported as 24. Also, the EC50 in [2] (Homo sapiens, HCT-8, 72 h) is 13 nM; with lung carcinoma (A-549) (Homo sapiens, A549, 72 h), 6 nM; with ovarian cancer (1A9) (Homo sapiens, 72 h), 2 nM. Moreover, the “Resistance Fold PAX-10” value in the series with PAX-10 turned out to be 24. The “Resistance Fold KB-7d” value in the series with KB-7d amounted to 1. Besides, the “Resistance Fold KB-CPT” value with KB-CPT is on record as 1.
